According to PMC8838850, “Synthesis, Antimicrobial, Anti-Virulence and Anticancer Evaluation of New 5(4H)-Oxazolone-Based Sulfonamides” (Molecules, 2022):
≈ marks a conversion by molar mass, not a printed value. Where “and” joins values, the source holds several entries; their conditions need not be identical. Equal entries are not always repeated. Where two headings read alike, the source gives them in different places. Each block holds one compound with its values, some of them ahead of it.

Key:
[1] = test system: HPDE; test: SRB cell viability assay, normal cells; format: cell-based
Protocol: Firstly, to determine the cell viability, HPDE cell lines were treated with all new synthesized compounds 9a–k for 96 h using sulforhodamine B (SRB) assay. All newly synthesized compounds were proven non-toxic with IC50 more than […] (Table 2).
The pancreatic human cancer cell lines BxPC-3 and Panc-1, the human hepatocellular carcinoma (HepG-2), and the normal immortalized pancreatic cell line HPDE, that were used in this study, were obtained from the American Type Culture Collection (Rockville, USA). Cell lines were cultured and treated with the tested compounds or dimethyl sulfoxide (DMSO) as previously described. Cells were cultivated in DMEM medium (Invitrogen, Carlsbad, CA, USA), supplemented with streptomycin, penicillin and fetal bovine serum (FCS) (Invitrogen, Carlsbad, CA, USA).
(§1) The sulforhodamine B (SRB) assay was employed to assess the anti-proliferative effects of tested compounds on cancer cells. Cell lines were incubated and regularly treated with DMSO or increasing doses of tested compounds for 48 h. The cells were fixed with 10% trichloroacetic acid and stained with SRB fluorescent dye for 30 min. Then, the bounded SRB dye to cellular proteins was dissolved in 10 mM Tris base after washing excess dye with 1% acetic acid. The absorbance was measured at 510 nm in a reader (Biotek, Winooski, VT, USA).

[2] = test system: Pseudomonas aeruginosae ATCC 47085; test: MIC by agar dilution; format: cell-based, Pseudomonas aeruginosa; conditions: 20 h
Protocol: (§2) The MICs of the synthesized compound were determined by agar dilution method according to the Clinical Laboratory and Standards Institute Guidelines (CLSI, 2015). Briefly, the tested strains were incubated overnight in tryptic soy broth (TSB) (Oxoid, United Kingdom) and then diluted in Muller–Hinton (MH) broth (Oxoid, United Kingdom) to turbidity approximating to the equivalent of 0.5 McFarland standard. The suspensions were further diluted with sterile saline (1:10) and standardized inoculums (approximately 10^4 CFU per spot) were spotted on the surfaces of MH agar (Oxoid, United Kingdom) plates containing different concentrations of tested compounds and a control plate. The MICs were the lowest concentrations that inhibit growth on the plates after incubation at 37 °C for 20 h.

[3] = test system: Aspergillus niger ATCC 16404; test: MIC by agar dilution (antifungal); format: cell-based
Protocol: as §2

[4] = test system: Staphylococcus epidermidis ATCC 12228; test: MIC by agar dilution; format: cell-based; conditions: 20 h
Protocol: as §2

[5] = test system: Klebsiella pneumoniae ATCC 27736; test: MIC by agar dilution; format: cell-based; conditions: 20 h
Protocol: as §2

[6] = test system: Staphylococcus aureus ATCC 6538; test: MIC by agar dilution; format: cell-based; conditions: 20 h
Protocol: as §2

[7] = test system: Escherichia coli ATCC 10536; test: MIC by agar dilution; format: cell-based; conditions: 20 h
Protocol: as §2

[8] = test system: Micrococcus spp. ATCC 10240; test: MIC by agar dilution; format: cell-based; conditions: 20 h
Protocol: as §2

[9] = test system: Salmonella typhimurium ATCC 14028; test: MIC by agar dilution; format: cell-based; conditions: 37 °C, 20 h
Protocol: as §2

[10] = test system: BxPC-3; test: SRB cellular proliferation assay; format: cell-based, human; conditions: BxPC-3 cells, mean ± SD (n = 3)
Protocol: as §1, with “The pancreatic human cancer cell lines BxPC-3 and Panc-1, the human hepatocellular carcinoma (HepG-2), and the normal immortalized pancreatic cell line HPDE, that were used in this study, were obtained from the American Type Culture Collection (Rockville, USA). Cell lines were cultured and treated with the tested compounds or dimethyl sulfoxide (DMSO) as previously described. Cells were cultivated in DMEM medium (Invitrogen, Carlsbad, CA, USA), supplemented with streptomycin, penicillin and fetal bovine serum (FCS) (Invitrogen, Carlsbad, CA, USA). The sulforhodamine” for “The sulforhodamine”

[11] = test system: Panc-1; test: SRB cellular proliferation assay; format: cell-based, human; conditions: Panc-1 cells, mean ± SD (n = 3)
Protocol: as §1, with “The pancreatic human cancer cell lines BxPC-3 and Panc-1, the human hepatocellular carcinoma (HepG-2), and the normal immortalized pancreatic cell line HPDE, that were used in this study, were obtained from the American Type Culture Collection (Rockville, USA). Cell lines were cultured and treated with the tested compounds or dimethyl sulfoxide (DMSO) as previously described. Cells were cultivated in DMEM medium (Invitrogen, Carlsbad, CA, USA), supplemented with streptomycin, penicillin and fetal bovine serum (FCS) (Invitrogen, Carlsbad, CA, USA). The sulforhodamine” for “The sulforhodamine”

[12] = test system: HepG-2; test: SRB cellular proliferation assay; format: cell-based, human; conditions: mean ± SD (n = 3)
Protocol: as §1, with “The pancreatic human cancer cell lines BxPC-3 and Panc-1, the human hepatocellular carcinoma (HepG-2), and the normal immortalized pancreatic cell line HPDE, that were used in this study, were obtained from the American Type Culture Collection (Rockville, USA). Cell lines were cultured and treated with the tested compounds or dimethyl sulfoxide (DMSO) as previously described. Cells were cultivated in DMEM medium (Invitrogen, Carlsbad, CA, USA), supplemented with streptomycin, penicillin and fetal bovine serum (FCS) (Invitrogen, Carlsbad, CA, USA). The sulforhodamine” for “The sulforhodamine”

[13] = test system: Candida albicans ATCC 10231; test: MIC by agar dilution (antifungal); format: cell-based; conditions: Candida albicans ATCC 10231
Protocol: as §2

MIC ([2]; ATCC47085, 37 °C, read-out: Minimum inhibitory concentration (MIC)): > 32 µg/mL | MIC ([3]; ATCC16404, 20 h, read-out: Minimum inhibitory concentration (MIC)): 16 µg/mL (≈ 38.1 µM) | MIC ([3]; ATCC16404, read-out: Minimum inhibitory concentration (MIC)): > 32 µg/mL | MIC ([4]; ATCC12228, 37 °C, read-out: Minimum inhibitory concentration (MIC)): 4 µg/mL (≈ 9.54 µM) | MIC ([5]; ATCC27736, 37 °C, read-out: Minimum inhibitory concentration (MIC)): > 32 µg/mL | MIC ([6]; ATCC6538, 37 °C, read-out: Minimum inhibitory concentration (MIC)): 4 µg/mL (≈ 9.54 µM) | MIC ([7]; ATCC10536, 37 °C, read-out: Minimum inhibitory concentration (MIC)): 16 µg/mL (≈ 38.1 µM) | MIC ([8]; ATCC10240, 37 °C, read-out: Minimum inhibitory concentration (MIC)): 2 µg/mL (≈ 4.77 µM) | MIC ([9]; Salmonella enterica, read-out: Minimum inhibitory concentration (MIC)): > 32 µg/mL | IC50 ([10]; Homo sapiens, read-out: IC50): 7.27 ± 1.49 µg/mL (≈ 17.3 µM) | IC50 ([11]; Homo sapiens, read-out: IC50): 19.9 ± 3.35 µg/mL (≈ 47.4 µM) | melting point: 210 to 212 °C
Compound: Cc1ccc(S(=O)(=O)Nc2ccccc2C2=N/C(=C/c3ccncc3)C(=O)O2)cc1 [Compound 9k, (E)-4-Methyl-N-(2-(5-oxo-4-(pyridin-4-ylmethylene)-4,5-dihydrooxazol-2-yl)phenyl)benzenesulfonamide]
IC50 ([1]; normal HPDE cells, read-out: IC50): > 50 µg/mL | IC50 ([12]; Homo sapiens, HepG2, HepG-2 cells, read-out: IC50): 33.1 ± 5.12 µg/mL (≈ 78.9 µM)

Compound: (E)-4-Methyl-N-(2-(4-(naphthalen-1-ylmethylene)-5-oxo-4,5-dihydrooxazol-2-yl)phenyl)benzenesulfonamide [Compound 9h]
IC50 ([1]; HPDE normal immortalized cell line, 96 h): >50000 µg/mL | Minimum inhibitory concentration (MIC) ([2]; 37 °C): >32 µg/mL | Minimum inhibitory concentration (MIC) [3]: 8 µg/mL and 4 µg/mL | Minimum inhibitory concentration (MIC) [13]: 4 µg/mL and 2 µg/mL | Minimum inhibitory concentration (MIC) ([4]; 37 °C): >32 µg/mL | Minimum inhibitory concentration (MIC) ([5]; 37 °C): >32 µg/mL | Minimum inhibitory concentration (MIC) ([6]; 37 °C): >32 µg/mL | Minimum inhibitory concentration (MIC) ([7]; 37 °C): >32 µg/mL | Minimum inhibitory concentration (MIC) ([8]; 37 °C): >32 µg/mL | Minimum inhibitory concentration (MIC) [9]: >32 µg/mL | IC50 [10]: 12.60 ± 0.62 µg/mL | IC50 [11]: 14.72 ± 2.87 µg/mL | IC50 ([12]; HepG-2 cells): 17.34 ± 0.96 µg/mL
